# The C3SDB collision cross section collection
# Several values for one entry are separate records, joined by “and”; a condition that tells them apart may be missing. Equal values may be shown once.
# Details: [M+H]+; instrument: DT; stepped-field
row,collision cross section (N2) [Å²],Structure (SMILES)
1,249,CC(C)C[C@H](NC(=O)[C@H](CO)NC(=O)[C@@H](N)C(C)C)C(=O)N[C@@H](C)C(=O)N[C@@H](CCC(=O)O)C(=O)N[C@@H](CCCCN)C(=O)O [VSLAEK]

# Same assay, conditions: [M+K]+; instrument: DT; stepped-field
row,collision cross section (N2) [Å²],Structure (SMILES)
1,277.2,CCCCCCCCCCCCCCCCC(=O)O[C@H](COC(=O)CCCCCCCCCCCCCCC)COP(=O)(O)OCCN [PE(33:0)]
2,293.4,CCCCC/C=C\C/C=C\CCCCCCCCCC(=O)O[C@H](COC(=O)CCCCCCC/C=C\CCCCCCCCC)COP(=O)(O)OCCN [PE(39:3)]
3,304.7,CC/C=C\C/C=C\C/C=C\C/C=C\C/C=C\CCCCCC(=O)O[C@H](COC(=O)CCCCCCCCCCCCCCCC)COP(=O)([O-])OCC[N+](C)(C)C [PC(39:5)]

# The next lines start with the molecule.
row,Structure (SMILES),collision cross section (N2) [Å²]
1,OC[C@H]1OC(OC[C@H]2OC(O[C@]3(CO)O[C@H](CO)[C@@H](O)[C@@H]3O)[C@H](O)[C@@H](O)[C@@H]2O)[C@H](O)[C@@H](O)[C@H]1O (some centres not stated) [Raffinose],212.7
2,OC[C@H]1O[C@H](O[C@H]2[C@H](O)[C@@H](O)[C@@H](O[C@H]3[C@H](O)[C@@H](O)[C@@H](O[C@H]4[C@H](O)[C@@H](O)[C@@H](O[C@H]5[C@H](O)[C@@H](O)[C@@H](O[C@H]6[C@H](O)[C@@H](O)[C@@H](O)O[C@@H]6CO)O[C@@H]5CO)O[C@@H]4CO)O[C@@H]3CO)O[C@@H]2CO)[C@H](O)[C@@H](O)[C@@H]1O [Maltohexaose],293.3

# Same assay, conditions: [M+Na]+; instrument: DT; stepped-field
row,collision cross section (N2) [Å²],Structure (SMILES)
1,297.1,CCCCCCCCCCCCC=CC[C@@H](O)[C@H](CO[C@@H]1O[C@H](CO)[C@@H](O)C(O)C1O)NC(=O)CC=CCCCCCCCCCCCCCCCCCC (some centres not stated) [GlcCer(40:2)]
2,299.9,CC/C=C\C/C=C\C/C=C\C/C=C\C/C=C\CCCC(=O)O[C@H](COC(=O)CCCC/C=C\C/C=C\C/C=C\CCCCC)COP(=O)([O-])OCC[N+](C)(C)C [PC(38:8)]
3,313.2,CCCCCCCCCCC=CCC=CCC=CCC=CCC(=O)OC[C@H](COP(=O)(O)OC[C@H](N)C(=O)O)OC(=O)CC=CCC=CCC=CCC=CCCCCCCCCCC [PS(46:8)]
4,315.1,CCCCCCCCCCCCC=CC[C@@H](O)[C@H](COP(=O)([O-])OCC[N+](C)(C)C)NC(=O)CCCCCCCCCCCCCCCCCCCCCCCCC [SM(44:1)]
5,292.8,CCCCC/C=C\C/C=C\C/C=C\C/C=C\CCCCCC(=O)O[C@H](COC(=O)CCCCCCCCCCCCCCCC)COP(=O)(O)OCCN [PE(39:4)]
6,311.8,CC/C=C\C/C=C\C/C=C\C/C=C\C/C=C\C/C=C\CCC(=O)OC[C@H](COP(=O)(O)OC[C@H](N)C(=O)O)OC(=O)CCCCCCCCC/C=C\CCCCCCCCCC [PS(44:7)]
7,307.8,CCCCCCCCCCCCC=CC[C@@H](O)[C@H](CO[C@@H]1O[C@H](CO)[C@@H](O)C(O)C1O)NC(=O)CC=CCCCCCCCCCCCCCCCCCCCCC (some centres not stated) [GlcCer(43:2)]

# More lines, now with the values behind:
row,Structure (SMILES),collision cross section (N2) [Å²]
1,CCCCC/C=C\C/C=C\C/C=C\C/C=C\CCCC(=O)O[C@H](COC(=O)CCCCCCCCCCCCCCC)COP(=O)(O)OC[C@H](N)C(=O)O [PS(36:4)],287.8
2,OC[C@H]1OC(OC[C@H]2OC(O[C@]3(CO)O[C@H](CO)[C@@H](O)[C@@H]3O)[C@H](O)[C@@H](O)[C@@H]2O)[C@H](O)[C@@H](O)[C@H]1O (some centres not stated) [Raffinose],210.7
3,OC[C@H]1O[C@H](O[C@H]2[C@H](O)[C@@H](O)[C@@H](O[C@H]3[C@H](O)[C@@H](O)[C@@H](O[C@H]4[C@H](O)[C@@H](O)[C@@H](O[C@H]5[C@H](O)[C@@H](O)[C@@H](O[C@H]6[C@H](O)[C@@H](O)[C@@H](O)O[C@@H]6CO)O[C@@H]5CO)O[C@@H]4CO)O[C@@H]3CO)O[C@@H]2CO)[C@H](O)[C@@H](O)[C@@H]1O [Maltohexaose],286.4

# Same assay, conditions: [M+Rb]+; instrument: DT; stepped-field
row,collision cross section (N2),Structure (SMILES)
1,218.7 Å² and 229.7 Å²,OC[C@H]1OC(OC[C@H]2OC(O[C@]3(CO)O[C@H](CO)[C@@H](O)[C@@H]3O)[C@H](O)[C@@H](O)[C@@H]2O)[C@H](O)[C@@H](O)[C@H]1O (some centres not stated) [Raffinose]

# Same assay, conditions: [M]+; instrument: DT; stepped-field
row,collision cross section (N2) [Å²],Structure (SMILES)
1,293.5,CCCCCCCCCC[N+](CCCCCCCCCC)(CCCCCCCCCC)CCCCCCCCCC [TAA10]

# Details: [M+H]+; instrument: TW; Major Mix IMS/Tof Calibration Kit (Waters)
row,collision cross section (N2) [Å²],Structure (SMILES)
1,193.1,CCN1CCCC1CNC(=O)c1cc(S(=O)(=O)CC)c(N)cc1OC (configuration not stated) [Amisulpride]
2,192.9,OCCOCCN1CCN(C2=Nc3ccccc3Sc3ccccc32)CC1 [Quetiapine]
3,170.4,CN1C(C(=O)Nc2ccccn2)=C(O)c2sccc2S1(=O)=O [Tenoxicam]

row,Structure (SMILES),collision cross section (N2) [Å²]
1,O=C1CN=C(c2ccccc2)c2cc([N+](=O)[O-])ccc2N1 [Nitrazepam],163.6
